Measured values taken from US20130023501A1, “PHARMACEUTICAL COMPOSITION COMPRISING SOLVENT MIXTURE AND A VITAMIN D DERIVATIVE OR ANALOGUE” (LEO PHARMA A/S, priority 2009, published 2013).

Tests used:
[1] = Amount of MCT required to dissolve calcipotriol in a tested ointment composition; type: physicochemical
[2] = Skin penetration and permeation, Franz diffusion cells; type: in vitro ADME; conditions: addition of menthol to the composition; 21 hours; pig ear skin; FIG. 1
Method: To investigate the skin penetration and permeation of calcipotriol from compositions of the invention, a skin diffusion experiment was conducted. Full thickness skin from pig ears was used in the study. The ears were kept frozen at −18° C. before use. On the day prior to the experiment the ears were placed in a refrigerator (5±3° C.) for slow defrosting. On the day of the experiment, the hairs were removed using a veterinary hair trimmer. The skin was cleaned for subcutaneous fat using a scalpel and two pieces of skin were cut from each ear and mounted on Franz diffusion cells in a balanced order.
Static Franz-type diffusion cells with an available diffusion area of 3.14 cm^2 and receptor volumes ranging from 8.6 to 11.1 ml—were used in substantially the manner described by T. J. Franz, “The finite dose technique as a valid in vitro model for the study of percutaneous absorption in man”, in Current Problems in Dermatology, 1978, J. W. H. Mall (Ed.), Karger, Basel, pp. 58-68. The specific volume was measured and registered for each cell. A magnetic bar was placed in the receptor compartment of each cell. […]
The in vitro skin permeation of each test composition was tested in 6 replicates (i.e. n=6). […] A glass spatula was used for the application, and the residual amount of the composition was determined so as to give the amount of the composition actually applied on the skin. […]

[3] = one study, Hannuksela et al. 1975; cited from earlier work

## C=C1/C(=C\C=C2/CCC[C@]3(C)[C@@H]([C@H](C)/C=C/[C@@H](O)C4CC4)CC[C@@H]23)C[C@@H](O)C[C@@H]1O [calcipotriol, Calcipotriol]
[1]
  MCT required to completely dissolve calcipotriol: about 50%
[2]
  skin permeation of calcipotriol: significant increase

## CC(O)CO (stereo not drawn) [propylene glycol]
[3]
  number of irritant reactions to propylene glycol: 12.5%
